Experimental data taken from patent US6545182B2, “Methods and compositions for modulating alpha adrenergic receptor activity” (Allergan Sales, Inc., priority 2000, dated 2003).

Assays:
[1] = system: Sprague-Dawley rats; assay: rat locomotor model to assess sedation; format: in vivo; conditions: 1 mg/kg i.p., 30 minutes after injection, vs vehicle controls
Protocol: (§1) The physiological activity of these compounds was tested using four models: a rat locomotor model to assess sedation, an assay of cardiovascular activity in monkeys, a rat thermal paw withdrawal assay (Dirig et al., J. Neurosci. Methods 76:183-191 (1997) to test the alleviation of acute pain, and the rat spinal nerve ligation allodynia model (Kim and Chung, Pain 50:355-363 (1992) to assess the alleviation of neuropathic pain and central sensitization typical of chronic pain. As is known to those of skill in the art, these tests are established pharmacological methods for determining sedation, cardiovascular effects, acute pain and chronic pain, respectively, of pharmaceutical agents.
To test sedation, six male Sprague-Dawley rats were given up to 3 mg/kg of each compound in a saline or DMSO vehicle by intraperitoneal injection (i.p.). Sedation was graded 30 minutes following administration of the drug by monitoring locomotor skills as follows.
The Sprague-Dawley rats are weighed and 1 ml/kg body weight of an appropriate concentration (i.e. 3 mg/ml for a final dose of 3 mg/kg) drug solution is injected intraperitoneally. FORMULA 3 is formulated in approximately 10% DMSO and FORMULA 2 and FORMULA 4 are formulated in 50% DMSO. The results are compared to 29 historical controls that were injected with 1 ml/kg saline or 50% DMSO. Rat activity is then determined 30 minutes after injection of the drug solution. Rats are placed in a dark covered chamber and a digicom analyzer (Omnitech Electronic) quantitates their exploratory behavior for a five-minute period. The machine records each time the rat interrupts an array of 32 photoelectric beams in the X and Y orientation.

[2] = system: rats with ligated L5 and L6 spinal nerves; assay: rat spinal nerve ligation allodynia model (chronic pain); format: in vivo; conditions: for reduction of the response to tactile stimuli that indicate tactile allodynia: 30 minutes after drug, von Frey hairs
Protocol: as §1
A model for chronic pain (in particular peripheral neuropathy such as causalgia) involves the surgical ligation of the L5 (and optionally the L6) spinal nerves on one side in experimental animals. Rats recovering from the surgery gain weight and display a level of general activity similar to that of normal rats. However, these rats develop abnormalities of the foot, wherein the hindpaw is moderately everted and the toes are held together. More importantly, the hindpaw on the side affected by the surgery appears to become sensitive to pain from low-threshold mechanical stimuli, such as that producing a faint sensation of touch in a human, within about 1 week following surgery. This sensitivity to normally non-painful touch is called “tactile allodynia” and lasts for at least two months. The response includes lifting the affected hindpaw to escape from the stimulus, licking the paw and holding it in the air for many seconds. None of these responses is normally seen in the control group.
Rats are anesthetized before surgery. The surgical site is shaved and prepared either with betadine or Novacaine. Incision is made from the thoracic vertebra Xlll down toward the sacrum. Muscle tissue is separated from the spinal vertebra (left side) at the L4-S2 levels. The L6 vertebra is located and the transverse process is carefully removed with a small rongeur to expose the L4-L6 spinal nerves. The L5 and L6 spinal nerves are isolated and tightly ligated with 6-0 silk thread. The same procedure is done on the right side as a control, except no ligation of the spinal nerves is performed.
A complete hemostasis is confirmed, then the wounds are sutured. A small amount of antibiotic ointment is applied to the incised area, and the rat is transferred to the recovery plastic cage under a regulated heat-temperature lamp. On the day of the experiment, at least seven days after the surgery, six rats per test group are administered the test drugs by intraperitoneal (i.p.) injection or oral gavage. For i.p. injection, the compounds are formulated in approximately 50% DMSO and given in a volume of 1 ml/kg body weight. FORMULA 2 was tested at doses ranging between 1 and 300 μg /kg, FORMULA 3 was tested at doses between 0.1 and 3 mg/kg and FORMULA 4 was tested at doses of 0.3 and 3 mg/kg. FORMULA 2 was also administered by oral gavage at doses of 0.1, 0.3 and 1 mg/kg body weight to 24-hour fasted rats. A volume equal to 1 ml/kg body weight of an appropriate concentration (i.e. 1 mg/ml for a 1 mg/kg dose) of FORMULA 2 formulated in approximately 50% DMSO was injected using an 18-gauge, 3-inch gavage needle that is slowly inserted through the esophagus into the stomach.
Tactile allodynia is measured prior to and 30 minutes after drug administration using von Frey hairs that are a series of fine hairs with incremental differences in stiffness. Rats are placed in a plastic cage with a wire mesh bottom and allowed to acclimate for approximately 30 minutes. The von Frey hairs are applied perpendicularly through the mesh to the mid-plantar region of the rats' hindpaw with sufficient force to cause slight buckling and held for 6-8 seconds. The applied force has been calculated to range from 0.41 to 15.1 grams. If the paw is sharply withdrawn, it is considered a positive response. […]

[3] = system: patient one; assay: treatment of allodynia resulting from shingles in a patient; format: in vivo, human; conditions: oral dose in capsule form, two days' treatment
Excerpt: person one in generally good physical condition suffers from serious pain to their upper body due caused by contact of their skin with their clothing. The patient is unable to wear clothing on their upper body without severe pain.
The patient is given a therapeutically effective oral dose of FORMULA 3 in capsule form as needed for the treatment of pain.
Same facts as in Example 5, except the patient is given a therapeutically effective oral dose of FORMULA 2 in capsule form as needed for the treatment of pain.

[4] = system: patient two; assay: treatment of visceral pain in a colon cancer patient; format: in vivo, human; conditions: intravenous infusion twice daily, after two days
Excerpt: patient two suffering from colon cancer and undergoing chemotherapy experiences severe visceral pain associated with this primary condition. Treatment of this pain with opiates have been ineffective to provide substantial relief.
The patient is given a therapeutic amount of FORMULA 3 by intravenous infusion in a pharmaceutically acceptable vehicle. The treatment is given twice daily.
Under the same facts as Example 7, except the patient is given FORMULA 2 instead of FORMULA 3.

Structure (SMILES)	reduction in the exploratory activity of the rats (sedation) [1]	reduction of the response to tactile stimuli that indicate tactile allodynia [2]	percent reversal of allodynia ([2]; i.p. 10 μg/kg) [%]	percent reversal of allodynia ([2]; i.p. 30 μg/kg) [%]	percent reversal of allodynia ([2]; i.p. 100 μg/kg) [%]	percent reversal of allodynia ([2]; i.p. 300 μg/kg) [%]	percent reversal of allodynia ([2]; i.p. dose of 3 μg/kg) [%]	alleviation of allodynic pain ([2]; oral doses ranging from 0.1 to 1 mg/kg, 24-hour fasted rats)	allodynia resulting from shingles, patient report [3]	visceral pain, patient report [4]	percent reversal of allodynic pain ([2]; i.p. 1 mg/kg) [%]	percent reversal of allodynic pain ([2]; i.p. 3 mg/kg) [%]	percent reversal of allodynic pain ([2]; i.p. dose of 0.3 mg/kg) [%]
OCCNC(=S)NCc1cccc(Cl)c1F [FORMULA 2, 1-(3-chloro-2-fluorobenzyl)-3-(2-hydroxyethyl)-thiourea]	none of the compounds caused a statistically significant reduction	able to reduce the response to the tactile stimuli	85	90	95	92	55	82-86%	markedly reduced	significant alleviation			
OCCNC(=S)NCc1ccc(F)cc1 [FORMULA 3]	none of the compounds caused a statistically significant reduction	able to reduce the response to the tactile stimuli							markedly reduced	significant alleviation	32	26	34
